Results published in PubChem BioAssay AID200 (DTP/NCI, 2004).
Several values for one entry are separate records, joined by “and”; a condition that tells them apart may be missing. Equal entries are not always repeated. Toxic doses and inconclusive results are not listed.

System: B6C3F1 mice, B16 melanoma ip, median survival T/C
Assay: NCI In Vivo Anticancer Drug Screen. Data for tumor model B16 Melanoma (intraperitoneal) in B6C3F1 mice
Conditions: endpoint: median survival time, higher = longer survival
Method in brief: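 Antitumor effect was judged in mice with transplanted tumors by dividing the treated group's survival measure by that of vehicle controls.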

[1] = dose: 6.25 mg/kg/injection, schedule: Q01DX009 (ip), vehicle: Klucel (hydroxypropylcellulose) (HPC)
[2] = dose: 50.0 mg/kg/injection, schedule: Q01DX009 (ip), vehicle: Klucel (hydroxypropylcellulose) (HPC)
[3] = dose: 12.5 mg/kg/injection, schedule: Q01DX009 (ip), vehicle: saline with Tween-80
[4] = dose: 12.5 mg/kg/injection, schedule: Q01DX009 (ip), vehicle: suspension in saline
[5] = dose: 25.0 mg/kg/injection, schedule: Q01DX009 (ip), vehicle: saline with Tween-80
[6] = dose: 25.0 mg/kg/injection, schedule: Q01DX009 (ip), vehicle: suspension in saline
[7] = dose: 50.0 mg/kg/injection, schedule: Q01DX009 (ip), vehicle: saline with Tween-80
[8] = dose: 50.0 mg/kg/injection, schedule: Q01DX009 (ip), vehicle: suspension in saline
[9] = dose: 100.0 mg/kg/injection, schedule: Q01DX009 (ip), vehicle: saline with Tween-80
[10] = dose: 100.0 mg/kg/injection, schedule: Q01DX009 (ip), vehicle: suspension in saline
[11] = dose: 200.0 mg/kg/injection, schedule: Q01DX009 (ip), vehicle: saline with Tween-80
[12] = dose: 0.5 mg/kg/injection, schedule: Q01DX009 (ip), vehicle: saline
[13] = dose: 2.0 mg/kg/injection, schedule: Q01DX009 (ip), vehicle: saline
[14] = dose: 25.0 mg/kg/injection, schedule: Q01DX009 (ip), vehicle: Klucel (hydroxypropylcellulose) (HPC)

In the case of `CCCN(CCC)C(C)C(O)c1cc2c(c3ccccc13)CCCC2` (stereo not drawn), the T/C (dose: 0.05 mg/kg/injection, schedule: Q01DX009 (ip), vehicle: Klucel (hydroxypropylcellulose) (HPC)) is reported as 99 % of control, the T/C (dose: 0.1 mg/kg/injection, schedule: Q01DX009 (ip), vehicle: Klucel (hydroxypropylcellulose) (HPC)) is reported as 91 % of control and 103 % of control and the T/C (dose: 0.2 mg/kg/injection, schedule: Q01DX009 (ip), vehicle: Klucel (hydroxypropylcellulose) (HPC)) is reported as 97 % of control and 107 % of control. The T/C (dose: 0.39 mg/kg/injection, schedule: Q01DX009 (ip), vehicle: Klucel (hydroxypropylcellulose) (HPC)) was 109 % of control, the T/C (dose: 0.4 mg/kg/injection, schedule: Q01DX009 (ip), vehicle: Klucel (hydroxypropylcellulose) (HPC)) was 96 % of control and 101 % of control and the T/C (dose: 0.78 mg/kg/injection, schedule: Q01DX009 (ip), vehicle: Klucel (hydroxypropylcellulose) (HPC)) was 108 % of control. For the same compound, the T/C (dose: 1.56 mg/kg/injection, schedule: Q01DX009 (ip), vehicle: Klucel (hydroxypropylcellulose) (HPC)) was 114 % of control and 95 % of control and 96 % of control, the T/C (dose: 3.12 mg/kg/injection, schedule: Q01DX009 (ip), vehicle: Klucel (hydroxypropylcellulose) (HPC)) was 94 % of control and the T/C [1] was 96 % of control and 101 % of control. The T/C [2] was 86 % of control.

With `Cc1ccc(N=NN(C)C)c2cccnc12` the T/C (dose: 3.13 mg/kg/injection, schedule: Q01DX009 (ip), vehicle: other) was 106 % of control, the T/C (dose: 6.25 mg/kg/injection, schedule: Q01DX009 (ip), vehicle: other) was 95 % of control and the T/C (dose: 12.5 mg/kg/injection, schedule: Q01DX009 (ip), vehicle: other) was 108 % of control. For the same compound, the T/C (dose: 25.0 mg/kg/injection, schedule: Q01DX009 (ip), vehicle: other) was 114 % of control and the T/C (dose: 50.0 mg/kg/injection, schedule: Q01DX009 (ip), vehicle: other) was 115 % of control.

For `Cc1cc(N(CC(C)Br)CC(C)Br)ccc1N=Nc1ccccc1C(=O)O` (stereo not drawn), the T/C (dose: 0.78 mg/kg/injection, schedule: Q01DX009 (ip), vehicle: saline) was 105 % of control, the T/C (dose: 1.56 mg/kg/injection, schedule: Q01DX009 (ip), vehicle: saline with Tween-80) was 110 % of control and the T/C (dose: 1.56 mg/kg/injection, schedule: Q01DX009 (ip), vehicle: saline) was 98 % of control. For the same compound, the T/C (dose: 3.12 mg/kg/injection, schedule: Q01DX009 (ip), vehicle: saline with Tween-80) was 164 % of control, the T/C (dose: 3.12 mg/kg/injection, schedule: Q01DX009 (ip), vehicle: saline) was 111 % of control and the T/C (dose: 6.25 mg/kg/injection, schedule: Q01DX009 (ip), vehicle: saline) was 108 % of control.

In the case of `C1CN1P1(N2CC2)=NP(N2CC2)(N2CC2)=NP(N2CC2)(N2CC2)=N1`, the T/C (dose: 1.0 mg/kg/injection, schedule: Q01DX009 (ip), vehicle: Klucel (hydroxypropylcellulose) (HPC)) is reported as 116 % of control and 94 % of control, the T/C (dose: 1.0 mg/kg/injection, schedule: Q02DX009 (ip), vehicle: Klucel (hydroxypropylcellulose) (HPC)) is reported as 113 % of control and 114 % of control and the T/C (dose: 2.0 mg/kg/injection, schedule: Q01DX009 (ip), vehicle: Klucel (hydroxypropylcellulose) (HPC)) is reported as 119 % of control. The T/C (dose: 2.0 mg/kg/injection, schedule: Q02DX009 (ip), vehicle: Klucel (hydroxypropylcellulose) (HPC)) was 114 % of control and 106 % of control, the T/C (dose: 4.0 mg/kg/injection, schedule: Q02DX009 (ip), vehicle: Klucel (hydroxypropylcellulose) (HPC)) was 120 % of control and 122 % of control and the T/C (dose: 8.0 mg/kg/injection, schedule: Q01DX009 (ip), vehicle: Klucel (hydroxypropylcellulose) (HPC)) was 180 % of control. For the same compound, the T/C (dose: 8.0 mg/kg/injection, schedule: Q02DX009 (ip), vehicle: Klucel (hydroxypropylcellulose) (HPC)) was 117 % of control and the T/C (dose: 16.0 mg/kg/injection, schedule: Q02DX009 (ip), vehicle: Klucel (hydroxypropylcellulose) (HPC)) was 195 % of control.

`COc1ccc(/C=C/C(=O)c2cc(C(=O)O)c(OC)cc2OC)cc1OC` was tested, and the T/C [3] was 100 % of control, the T/C [4] was 106 % of control and the T/C [5] was 94 % of control. The T/C [6] was 101 % of control, the T/C [7] was 96 % of control and the T/C [8] was 106 % of control. For the same compound, the T/C [9] was 88 % of control, the T/C [10] was 96 % of control and the T/C [11] was 96 % of control. The T/C (dose: 200.0 mg/kg/injection, schedule: Q01DX009 (ip), vehicle: suspension in saline) was 108 % of control and the T/C (dose: 400.0 mg/kg/injection, schedule: Q01DX009 (ip), vehicle: suspension in saline) was 98 % of control.

In the case of `CC1OC2CC(=O)OC2C2=C1C(=O)c1cc(-c3cc(O)c4c(c3)C(=O)C3=C(C4=O)C4OC(=O)CC4OC3C)cc(O)c1C2=O` (stereo not drawn), the T/C (dose: 0.5 mg/kg/injection, schedule: Q01DX009 (ip), vehicle: other) is reported as 90 % of control.

In the case of `CN(C)C1C(=O)C(C(=O)NP(=O)(NCCCO)N(CCCl)CCCl)=C(O)C2(O)C(=O)C3=C(O)c4c(O)cccc4C(C)(O)C3CC12` (stereo not drawn), the T/C (dose: 12.0 mg/kg/injection, schedule: Q01DX009 (ip), vehicle: saline with Tween-80) is reported as 105 % of control, the T/C [5] is reported as 103 % of control and 107 % of control and the T/C [7] is reported as 118 % of control and 102 % of control. For the same compound, the T/C [9] was 121 % of control and the T/C [11] was 195 % of control and 219 % of control.

With `NC(=O)c1ccc(N)nc1` the T/C [12] was 113 % of control, the T/C (dose: 1.0 mg/kg/injection, schedule: Q01DX009 (ip), vehicle: saline) was 119 % of control and the T/C [13] was 117 % of control.

`OC1CSC1` was tested, and the T/C (dose: 50.0 mg/kg/injection, schedule: Q01DX009 (ip), vehicle: saline + alcohol) was 109 % of control, the T/C (dose: 100.0 mg/kg/injection, schedule: Q01DX009 (ip), vehicle: saline + alcohol) was 107 % of control and the T/C (dose: 200.0 mg/kg/injection, schedule: Q01DX009 (ip), vehicle: saline + alcohol) was 113 % of control. The T/C (dose: 400.0 mg/kg/injection, schedule: Q01DX009 (ip), vehicle: saline + alcohol) was 112 % of control.

For `O=C1N[C@H]2[C@H](O)[C@H](O)[C@@H](O)[C@H](O)[C@@H]2c2cc3c(c(O)c21)OCO3`, the T/C (dose: 1.5 mg/kg/injection, schedule: Q01DX009 (ip), vehicle: saline + alcohol) was 100 % of control, the T/C (dose: 1.56 mg/kg/injection, schedule: Q01DX009 (ip), vehicle: saline + alcohol) was 108 % of control and the T/C (dose: 3.0 mg/kg/injection, schedule: Q01DX009 (ip), vehicle: saline + alcohol) was 103 % of control. For the same compound, the T/C (dose: 6.0 mg/kg/injection, schedule: Q01DX009 (ip), vehicle: saline + alcohol) was 114 % of control and the T/C (dose: 6.25 mg/kg/injection, schedule: Q01DX009 (ip), vehicle: saline + alcohol) was 110 % of control.

In the case of `Nc1nc2c(C(=O)N3CCCC3)nnn2c2ccccc12`, the T/C (dose: 6.25 mg/kg/injection, schedule: Q01DX009 (ip), vehicle: saline with Tween-80) is reported as 118 % of control, the T/C [3] is reported as 104 % of control and the T/C [5] is reported as 122 % of control. For the same compound, the T/C [7] was 107 % of control and the T/C [9] was 102 % of control.

`CC(=O)Nc1ccc(/C=N/Nc2ccc([N+](=O)[O-])cn2)cc1` was tested, and the T/C [3] was 89 % of control and the T/C [5] was 89 % of control.

With `CC(O)C(NC(=O)OC(C)(C)C)C(=O)O` (stereo not drawn) the T/C (dose: 25.0 mg/kg/injection, schedule: Q01DX009 (ip), vehicle: saline) was 86 % of control and 100 % of control, the T/C (dose: 50.0 mg/kg/injection, schedule: Q01DX009 (ip), vehicle: saline) was 108 % of control and 106 % of control and the T/C (dose: 100.0 mg/kg/injection, schedule: Q01DX009 (ip), vehicle: saline) was 108 % of control and 100 % of control. The T/C (dose: 200.0 mg/kg/injection, schedule: Q01DX009 (ip), vehicle: saline) was 95 % of control.

For `COc1cc(C(=O)c2cc3c(cc2C)OCO3)cc(OC)c1OC`, the T/C [1] was 94 % of control, the T/C (dose: 12.5 mg/kg/injection, schedule: Q01DX009 (ip), vehicle: Klucel (hydroxypropylcellulose) (HPC)) was 100 % of control and the T/C [14] was 108 % of control. For the same compound, the T/C [2] was 117 % of control and 106 % of control.

`Cc1ccccc1N(C=O)c1ccccc1C` was tested, and the T/C [9] was 97 % of control, the T/C [11] was 97 % of control and the T/C (dose: 400.0 mg/kg/injection, schedule: Q01DX009 (ip), vehicle: saline with Tween-80) was 97 % of control.

With `COc1cccc2c1C(=O)c1c(O)c3c(c(O)c1C2=O)C[C@@](O)(/C(C)=N/NC(=O)c1ccc(Cl)cc1)C[C@@H]3OC1CC(N)C(O)C(C)O1` (stereo partly drawn) the T/C [12] was 105 % of control, the T/C [13] was 183 % of control and the T/C (dose: 4.0 mg/kg/injection, schedule: Q01DX009 (ip), vehicle: saline) was 216 % of control. For the same compound, the T/C (dose: 8.0 mg/kg/injection, schedule: Q01DX009 (ip), vehicle: saline) was 151 % of control.

In the case of `CC(C)CC(NC=O)C(=O)O` (stereo not drawn), the T/C [14] is reported as 103 % of control, the T/C [2] is reported as 103 % of control and the T/C (dose: 100.0 mg/kg/injection, schedule: Q01DX009 (ip), vehicle: Klucel (hydroxypropylcellulose) (HPC)) is reported as 92 % of control and 100 % of control.

`Cc1c(CNc2ccc(C(=O)NC(CC(=O)O)C(=O)O)cc2)ccc2nc(N)nc(N)c12` (stereo not drawn) was tested, and the T/C (dose: 0.18 mg/kg/injection, schedule: Q01DX009 (ip), vehicle: saline with Tween-80) was 90 % of control.

`O=c1c(O)c(-c2ccc(O)c(O)c2)oc2cc(O)cc(O)c12` was tested, and the T/C [4] was 103 % of control, the T/C [6] was 107 % of control and the T/C [8] was 102 % of control. For the same compound, the T/C [10] was 109 % of control.
